Source: patent US7119075B2, “Use of herbal agents for potentiation of bioefficacy of anti infectives” (priority 2003, dated 2006)
In brackets after ≈: the same amount, converted by molar mass.

How the values were obtained:
[1] = system: Staphylococcus aureus ATCC 29313; assay: Inhibitory effect of bioenhancers alone; assay type: cell-based
[2] = system: Methicillin Resistant Staphylococcus aureus (MRSA); assay: Inhibitory effect of bioenhancers alone; assay type: cell-based
[3] = system: Staphylococcus epidermidis ATCC 12228; assay: Inhibitory effect of bioenhancers alone; assay type: cell-based
[4] = system: Staphylococcus hemolyticus ATCC 29978; assay: Inhibitory effect of bioenhancers alone; assay type: cell-based
[5] = system: Bacillus cereus RRL 02; assay: Inhibitory effect of bioenhancers alone; assay type: cell-based
[6] = system: Escherichia coli ATCC 25922; assay: Inhibitory effect of bioenhancers alone; assay type: cell-based
[7] = system: Salmonella typhi AIIMS 2; assay: Inhibitory effect of bioenhancers alone; assay type: cell-based
[8] = system: Klebsiella pneumoniae ATCC 75388; assay: Inhibitory effect of bioenhancers alone; assay type: cell-based
[9] = system: Pseudomonas aeruginosa ATCC 27583; assay: Inhibitory effect of bioenhancers alone; assay type: cell-based
[10] = system: Candida tropicalis ATCC 750; assay: Inhibitory effect of bioenhancers alone; assay type: cell-based
[11] = system: Candida krusei ATCC 6258; assay: Inhibitory effect of bioenhancers alone; assay type: cell-based
[12] = system: Aspergillus flavus MTCC 1973; assay: Inhibitory effect of bioenhancers alone; assay type: cell-based
[13] = system: Aspergillus fumigatus SI-1; assay: Inhibitory effect of bioenhancers alone; assay type: cell-based
[14] = system: Mycobacterium tuberculosis H37Rv; assay: Inhibitory effect of bioenhancers alone; assay type: cell-based
[15] = system: Mycobacterium tuberculosis 615; assay: Inhibitory effect of bioenhancers alone; assay type: cell-based
[16] = system: Mycobacterium avium ATCC 49601; assay: Inhibitory effect of bioenhancers alone; assay type: cell-based
[17] = system: Mycobacterium intracelluare ATCC 13950; assay: Inhibitory effect of bioenhancers alone; assay type: cell-based
[18] = system: Gram positive bacteria; assay: organism not typed; assay type: cell-based; settings: for MIC: read-out: MIC Drug alone
[19] = system: Gram negative bacteria; assay: organism not typed; assay type: cell-based; settings: for MIC: read-out: MIC Drug alone
[20] = system: M. tuberculosis; assay: MIC of drugs alone and with bioenhancer (Table 7); assay type: cell-based; settings: Mycobacterium tuberculosis, Drug alone
[21] = system: Yeast; assay: MIC of drugs alone and with bioenhancer (Table 7); assay type: cell-based; settings: Drug alone
[22] = system: Filamentous fungi; assay: organism not typed; assay type: cell-based; settings: Drug alone
[23] = system: MRSA 450; assay: microbe, parasite or virus in culture; settings: Staphylococcus aureus
[24] = system: MRSA 15187; assay: microbe, parasite or virus in culture; settings: Staphylococcus aureus

3′,5-Dihydroxy flavone 7-O-β-D-galacturonide-4′-O-β-D-glucopyranoside [pure molecule of Cuminum cyminum]
inhibitory effect ([1]; conc. 0.2 μg/ml): ++++ (No inhibition)
inhibitory effect ([1]; conc. 0.8 μg/ml): ++++ (No inhibition)
inhibitory effect ([1]; conc. 3.12 μg/ml): ++++ (No inhibition)
inhibitory effect ([1]; conc. 12.5 μg/ml): ++++ (No inhibition)
inhibitory effect ([1]; conc. 50 μg/ml): ++++ (No inhibition)
inhibitory effect ([1]; conc. 100 μg/ml): ++++ (No inhibition)
inhibitory effect ([2]; conc. 0.2 μg/ml): ++++ (No inhibition)
inhibitory effect ([2]; conc. 0.8 μg/ml): ++++ (No inhibition)
inhibitory effect ([2]; conc. 3.12 μg/ml): ++++ (No inhibition)
inhibitory effect ([2]; conc. 12.5 μg/ml): ++++ (No inhibition)
inhibitory effect ([2]; conc. 50 μg/ml): ++++ (No inhibition)
inhibitory effect ([2]; conc. 100 μg/ml): ++++ (No inhibition)
inhibitory effect ([3]; conc. 0.2 μg/ml): ++++ (No inhibition)
inhibitory effect ([3]; conc. 0.8 μg/ml): ++++ (No inhibition)
inhibitory effect ([3]; conc. 3.12 μg/ml): ++++ (No inhibition)
inhibitory effect ([3]; conc. 12.5 μg/ml): ++++ (No inhibition)
inhibitory effect ([3]; conc. 50 μg/ml): ++++ (No inhibition)
inhibitory effect ([3]; conc. 100 μg/ml): ++++ (No inhibition)
inhibitory effect ([4]; conc. 0.2 μg/ml): ++++ (No inhibition)
inhibitory effect ([4]; conc. 0.8 μg/ml): ++++ (No inhibition)
inhibitory effect ([4]; conc. 3.12 μg/ml): ++++ (No inhibition)
inhibitory effect ([4]; conc. 12.5 μg/ml): ++++ (No inhibition)
inhibitory effect ([4]; conc. 50 μg/ml): ++++ (No inhibition)
inhibitory effect ([4]; conc. 100 μg/ml): ++++ (No inhibition)
inhibitory effect ([5]; conc. 0.2 μg/ml): ++++ (No inhibition)
inhibitory effect ([5]; conc. 0.8 μg/ml): ++++ (No inhibition)
inhibitory effect ([5]; conc. 3.12 μg/ml): ++++ (No inhibition)
inhibitory effect ([5]; conc. 12.5 μg/ml): ++++ (No inhibition)
inhibitory effect ([5]; conc. 50 μg/ml): ++++ (No inhibition)
inhibitory effect ([5]; conc. 100 μg/ml): ++++ (No inhibition)
inhibitory effect ([6]; conc. 0.2 μg/ml): ++++ (No inhibition)
inhibitory effect ([6]; conc. 0.8 μg/ml): ++++ (No inhibition)
inhibitory effect ([6]; conc. 3.12 μg/ml): ++++ (No inhibition)
inhibitory effect ([6]; conc. 12.5 μg/ml): ++++ (No inhibition)
inhibitory effect ([6]; conc. 50 μg/ml): ++++ (No inhibition)
inhibitory effect ([6]; conc. 100 μg/ml): ++++ (No inhibition)
inhibitory effect ([7]; conc. 0.2 μg/ml): ++++ (No inhibition)
inhibitory effect ([7]; conc. 0.8 μg/ml): ++++ (No inhibition)
inhibitory effect ([7]; conc. 3.12 μg/ml): ++++ (No inhibition)
inhibitory effect ([7]; conc. 12.5 μg/ml): ++++ (No inhibition)
inhibitory effect ([7]; conc. 50 μg/ml): ++++ (No inhibition)
inhibitory effect ([7]; conc. 100 μg/ml): ++++ (No inhibition)
inhibitory effect ([8]; conc. 0.2 μg/ml): ++++ (No inhibition)
inhibitory effect ([8]; conc. 0.8 μg/ml): ++++ (No inhibition)
inhibitory effect ([8]; conc. 3.12 μg/ml): ++++ (No inhibition)
inhibitory effect ([8]; conc. 12.5 μg/ml): ++++ (No inhibition)
inhibitory effect ([8]; conc. 50 μg/ml): ++++ (No inhibition)
inhibitory effect ([8]; conc. 100 μg/ml): ++++ (No inhibition)
inhibitory effect ([9]; conc. 0.2 μg/ml): ++++ (No inhibition)
inhibitory effect ([9]; conc. 0.8 μg/ml): ++++ (No inhibition)
inhibitory effect ([9]; conc. 3.12 μg/ml): ++++ (No inhibition)
inhibitory effect ([9]; conc. 12.5 μg/ml): ++++ (No inhibition)
inhibitory effect ([9]; conc. 50 μg/ml): ++++ (No inhibition)
inhibitory effect ([9]; conc. 100 μg/ml): ++++ (No inhibition)
inhibitory effect ([10]; conc. 0.2 μg/ml): ++++ (No inhibition)
inhibitory effect ([10]; conc. 0.8 μg/ml): ++++ (No inhibition)
inhibitory effect ([10]; conc. 3.12 μg/ml): ++++ (No inhibition)
inhibitory effect ([10]; conc. 12.5 μg/ml): ++++ (No inhibition)
inhibitory effect ([10]; conc. 50 μg/ml): ++++ (No inhibition)
inhibitory effect ([10]; conc. 100 μg/ml): ++++ (No inhibition)
inhibitory effect ([11]; conc. 0.2 μg/ml): ++++ (No inhibition)
inhibitory effect ([11]; conc. 0.8 μg/ml): ++++ (No inhibition)
inhibitory effect ([11]; conc. 3.12 μg/ml): ++++ (No inhibition)
inhibitory effect ([11]; conc. 12.5 μg/ml): ++++ (No inhibition)
inhibitory effect ([11]; conc. 50 μg/ml): ++++ (No inhibition)
inhibitory effect ([11]; conc. 100 μg/ml): ++++ (No inhibition)
inhibitory effect ([12]; conc. 0.2 μg/ml): ++++ (No inhibition)
inhibitory effect ([12]; conc. 0.8 μg/ml): ++++ (No inhibition)
inhibitory effect ([12]; conc. 3.12 μg/ml): ++++ (No inhibition)
inhibitory effect ([12]; conc. 12.5 μg/ml): ++++ (No inhibition)
inhibitory effect ([12]; conc. 50 μg/ml): ++++ (No inhibition)
inhibitory effect ([12]; conc. 100 μg/ml): ++++ (No inhibition)
inhibitory effect ([13]; conc. 0.2 μg/ml): ++++ (No inhibition)
inhibitory effect ([13]; conc. 0.8 μg/ml): ++++ (No inhibition)
inhibitory effect ([13]; conc. 3.12 μg/ml): ++++ (No inhibition)
inhibitory effect ([13]; conc. 12.5 μg/ml): ++++ (No inhibition)
inhibitory effect ([13]; conc. 50 μg/ml): ++++ (No inhibition)
inhibitory effect ([13]; conc. 100 μg/ml): ++++ (No inhibition)
inhibitory effect ([14]; conc. 0.2 μg/ml): ++++ (No inhibition)
inhibitory effect ([14]; conc. 0.8 μg/ml): ++++ (No inhibition)
inhibitory effect ([14]; conc. 3.12 μg/ml): ++++ (No inhibition)
inhibitory effect ([14]; conc. 12.5 μg/ml): ++++ (No inhibition)
inhibitory effect ([14]; conc. 50 μg/ml): ++++ (No inhibition)
inhibitory effect ([14]; conc. 100 μg/ml): ++++ (No inhibition)
inhibitory effect ([15]; conc. 0.2 μg/ml): ++++ (No inhibition)
inhibitory effect ([15]; conc. 0.8 μg/ml): ++++ (No inhibition)
inhibitory effect ([15]; conc. 3.12 μg/ml): ++++ (No inhibition)
inhibitory effect ([15]; conc. 12.5 μg/ml): ++++ (No inhibition)
inhibitory effect ([15]; conc. 50 μg/ml): ++++ (No inhibition)
inhibitory effect ([15]; conc. 100 μg/ml): ++++ (No inhibition)
inhibitory effect ([16]; conc. 0.2 μg/ml): ++++ (No inhibition)
inhibitory effect ([16]; conc. 0.8 μg/ml): ++++ (No inhibition)
inhibitory effect ([16]; conc. 3.12 μg/ml): ++++ (No inhibition)
inhibitory effect ([16]; conc. 12.5 μg/ml): ++++ (No inhibition)
inhibitory effect ([16]; conc. 50 μg/ml): ++++ (No inhibition)
inhibitory effect ([16]; conc. 100 μg/ml): ++++ (No inhibition)
inhibitory effect ([17]; conc. 0.2 μg/ml): ++++ (No inhibition)
inhibitory effect ([17]; conc. 0.8 μg/ml): ++++ (No inhibition)
inhibitory effect ([17]; conc. 3.12 μg/ml): ++++ (No inhibition)
inhibitory effect ([17]; conc. 12.5 μg/ml): ++++ (No inhibition)
inhibitory effect ([17]; conc. 50 μg/ml): ++++ (No inhibition)
inhibitory effect ([17]; conc. 100 μg/ml): ++++ (No inhibition)

NCC[C@H](O)C(=O)N[C@@H]1C[C@H](N)[C@@H](O[C@H]2O[C@H](CN)[C@@H](O)[C@H](O)[C@H]2O)[C@H](O)[C@H]1O[C@H]1O[C@H](CO)[C@@H](O)[C@H](N)[C@H]1O [Amikacin]
MIC [18]: 2 to 32 µg/mL (≈ 3.42 to 54.6 µM)
MIC [19]: 0.12 to 4 µg/mL (≈ 0.205 to 6.83 µM)
MIC [20]: 0.5 to 1 µg/mL

C[C@@H]1[C@H](O)[C@@H](C)/C=C/C=C/C=C/C=C/C=C/C=C/C=C/[C@H](O[C@@H]2O[C@H](C)[C@@H](O)[C@H](N)[C@@H]2O)C[C@@H]2O[C@](O)(C[C@@H](O)C[C@@H](O)[C@H](O)CC[C@@H](O)C[C@@H](O)CC(=O)O[C@H]1C)C[C@H](O)[C@H]2C(=O)O [Amphotericin B]
MIC Drug alone [21]: 0.25 to 2.0 µg/mL
MIC Drug alone [22]: 0.25 to 4 µg/mL

N[C@@H](C(=O)N[C@@H]1C(=O)N2C(C(=O)O)=C(Cl)CS[C@H]12)c1ccccc1 [Cefaclor]
MIC [18]: 0.06 to 32 µg/mL (≈ 0.163 to 87 µM)
MIC [19]: 0.25 to 64 µg/mL (≈ 0.68 to 174 µM)

C=CC1=C(C(=O)O)N2C(=O)[C@@H](NC(=O)/C(=N\O)c3csc(N)n3)[C@H]2SC1 [Cefdinir]
MIC [18]: 0.06 to 32 µg/mL (≈ 0.152 to 80.9 µM)
MIC [19]: 0.25 to 64 µg/mL (≈ 0.632 to 162 µM)

COCC1=C(C(=O)O)N2C(=O)[C@@H](NC(=O)/C(=N\OC)c3csc(N)n3)[C@H]2SC1 [Cefpedoxime]
MIC Drug alone [18]: 0.12 to 16 µg/mL
MIC Drug alone [19]: 0.03 to 64 µg/mL

CO/N=C(\C(=O)N[C@@H]1C(=O)N2C(C(=O)O)=C(CSc3nc(=O)c(O)nn3C)CS[C@H]12)c1csc(N)n1 [Ceftrioxone]
MIC Drug alone [18]: 0.12 to 32 µg/mL
MIC Drug alone [19]: 0.03 to 32 µg/mL

O=C(O)c1cn(C2CC2)c2cc(N3CCNCC3)c(F)cc2c1=O [Ciprofloxacin]
MIC [18]: 0.12 to 32 µg/mL (≈ 0.362 to 96.6 µM)
MIC [19]: 0.03 to 0.5 µg/mL (≈ 0.0905 to 1.51 µM)
MIC [20]: 0.5 to 1 µg/mL
MIC [23]: 64 µg/mL (≈ 193 µM)
MIC [24]: 64 µg/mL (≈ 193 µM)
